Test [1] is described as follows: Fibroblast proliferation assay. The class given is cell-based, human. The note with it: Homo sapiens, Fibroblast, read-out: inhibition of proliferation normalized to FBS-induced growth. On the procedure:
(§1) Primary cultures of human pulmonary arterial smooth muscle cells were derived from distal blood vessels taken from lungs harvested from patients with idiopathic pulmonary arterial hypertension (IPAH) who had been treated with iloprost or a combination of epoprostenol and bosentan for at least 1.4 years. Cells were cultured for 24 hours in 6-well plates in a solution of human smooth muscle basal medium (SMBM; TCS Cellworks, UK) with 9% fetal bovine serum (FBS; Invitrogen, US) and penicillin-streptomycin (PenStrep; 50 units/mL; Invitrogen, US). The incubating solution was then changed to PenStrep in SMBM and the cells were allowed to incubate for another 48 hours. Test compounds were administered to the test wells as DMSO solutions with FBS (FBS and DMSO or SMBM were administered to the control wells). After 96 hours of incubation, the cells were trypsinized (0.05% trypsin/EDTA; Invitrogen, US) and 20 uL of cell suspension was added to 20 uL of Accustain solution T and Accustain solution N (Labtech, UK). The cells were counted and their viability assessed using an ADAM Automated Cell Counter (Digital Bio, Korea). Results were expressed in cell number per mL and percent growth compared to FBS-induced growth alone.
(§2) Using the procedure described in Example 1, primary cultures of human lung fibroblasts were derived from lungs harvested from patients with ideopathic pulmonary fibrosis (IPF) with secondary pulmonary arterial hypertension (PAH) who had previously been treated with epoprostenol, bosentan, and/or steroids. Treprostinil sodium was tested in these cells under the conditions described in Example 1 at concentrations of 1 pM, 10 pM, 100 pM, 1 nM, 10 nM, 100 nM, and 1 uM. The experiment was repeated four times and the results were averaged.

For test [2], the system named is human lung fibroblasts from patients with ideopathic pulmonary fibrosis (IPF) with secondary pulmonary arterial hypertension (PAH). Kind of test: Fibroblast proliferation assay. The class given is cell-based. The note with it: for effect on proliferation (in words): lung fibroblasts from IPF patients with secondary PAH, 1 pM to 1 uM. As to the method:
as §1, §2

Test [3] concerns human pulmonary arterial smooth muscle cells from patients with idiopathic pulmonary arterial hypertension (IPAH HPASMC). Put plainly: IPAH HPASMC proliferation assay. The class given is cell-based. The note with it: for inhibition at 1 µM: Homo sapiens; for inhibition at 1 µM / effect on proliferation (in words) / inhibition of proliferation normalized to FBS-induced growth / effect of combined treatment versus single agents (in words): IPAH HPASMC; for effect on proliferation (in words): concentrations up to 1 uM. On the procedure: as §1

Test [4] has as its system human pulmonary arterial smooth muscle cells from healthy patients (normal HPASMC). Put plainly: Normal HPASMC proliferation assay. The note with it: for inhibition at 1 µM: Homo sapiens, read-out: inhibition of proliferation normalized to FBS-induced growth; for effect on proliferation (in words): normal HPASMC, 1 pM to 1 uM. It counts as cell-based. As to the method:
as §1
As a control, primary cultures of human pulmonary arterial smooth muscle cells were derived from distal blood vessels taken from lungs harvested from healthy patients according to procedure described in Example 1. Treprostinil sodium was tested in these cells under the conditions described in Example 1 at concentrations of 1 pM, 10 pM, 100 pM, 1 nM, 10 nM, 100 nM, and 1 uM. The experiment was repeated four times and the results were averaged.

The mark [5] stands for this setting: 1 uM test compound, 96 hours incubation, cell count, read-out: inhibition of proliferation normalized to FBS-induced growth.
Where [6] appears, read: 1 uM test compound, 96 hours incubation, cell count.

Like-named read-outs stand apart in the source and are kept apart here.

With `CCCCC[C@H](O)CC[C@@H]1[C@H]2Cc3cccc(OCC(=O)O)c3C[C@H]2C[C@H]1O` [treprostinil sodium, reference compound], the inhibition at 1 µM in test [1] (1 uM test compound, lung fibroblasts from IPF patients with secondary PAH) is around 45%; in test [3] (setting [5]) it was around 60%; in test [4] (1 uM test compound, normal HPASMC from healthy patients), around 35%. For the same compound, the “effect on proliferation (in words)” value in test [2] is on record as “inhibited proliferation of fibroblasts at higher concentrations”; in test [3] it was “inhibited proliferation of IPAH HPASMC cells in a dose dependent manner”; in test [4], “inhibited normal HPASMC proliferation at higher concentrations”.
As for `COc1ccccc1Oc1c(NS(=O)(=O)c2ccc(C(C)(C)C)cc2)nc(-c2ncccn2)nc1OCCO` [bosentan, reference compound], in test [3] (setting [5]), the inhibition at 1 µM was around 20%. Also, the “effect on proliferation (in words)” value in test [3] is reported as “inhibited proliferation of IPAH HPASMC cells at higher concentrations”.
In the case of `Cc1ccc(C(=O)N(CCCN)[C@@H](c2oc3cc(Cl)ccc3c(=O)c2Cc2ccccc2)C(C)C)cc1` [Compound A, N-(3-Aminopropyl)-N-[(R)-(1-3-benzyl-7-chloro-4-oxo-4H-chromen-2-yl)-2-methyl-propyl]-4-methyl-benzamide], in test [3] (setting [6]), the “inhibition of proliferation normalized to FBS-induced growth” value is reported as “approximately 70%”. In test [3], the “effect on proliferation (in words)” value is “inhibited proliferation of IPAH cells in a dose dependent manner”.
Consider `COC(c1ccccc1)(c1ccccc1)[C@H](Oc1nc(C)cc(C)n1)C(=O)O` [ambrisentan, reference compound], for which the inhibition at 1 µM in test [3] (setting [5]) is around 25%.
`CC#CCC(C)[C@H](O)/C=C/[C@@H]1[C@H]2C/C(=C/CCCC(=O)O)C[C@H]2C[C@H]1O` (stereo partly drawn) [iloprost, reference compound]: the inhibition at 1 µM in test [3] (setting [5]) was around 40%. For the same compound, in test [3], the “effect on proliferation (in words)” value was “inhibited proliferation of IPAH HPASMC cells in a dose dependent manner”.
As for `CC(C)Oc1ccc(C(=O)N[C@H](CNC(=O)CN(C)C)Cc2ccc(-c3cn4cccc([C@H](C)O)c4n3)cc2)cc1Cl` [Compound B, 3-Chloro-N-{(1S)-2-[(N,N-dimethylglycyl)amino]-1-[(4-{8-[(1S)-1-hydroxyethyl]imidazo[1,2-c]pyridin-2-yl}phenyl)methyl]ethyl}-4-[(1-methylethyl)oxy]benzamide], the “inhibition of proliferation normalized to FBS-induced growth” value in test [3] (setting [6]) is “approximately 95%”. Moreover, the “effect on proliferation (in words)” value in test [3] was “inhibited proliferation of IPAH cells in a dose dependent manner”.
Consider `CCCC[C@@H](NC(=O)[C@@H](Cc1cn(C(=O)OC)c2ccccc12)NC(=O)[C@H](CC(C)(C)C)NC(=O)N1[C@H](C)CCC[C@@H]1C)C(=O)O` [BQ788, reference compound], for which the inhibition at 1 µM in test [3] (setting [5]) was around 20%. Besides, in test [3], the “effect on proliferation (in words)” value was “inhibited proliferation of IPAH cells at higher concentrations”.
With `CS(=O)(=O)O.Cc1ccc(C(=O)N(CCCN)[C@@H](c2nc3cc(Cl)ccc3c(=O)n2Cc2ccccc2)C(C)C)cc1` [ispinesib mesylate, N-(3-aminopropyl)-N-[(1R)-1-(3-benzyl-7-chloro-4-oxo-3,4-dihydroquinazolin-2-yl)-2-methylpropyl]-4-methylbenzamide monomethanesulfonate], the inhibition at 1 µM is around 75% in test [1]; around 80% in test [3] (96 h, read-out: inhibition of proliferation normalized to FBS-induced growth, 1 uM test compound, 96 hours incubation, cell count); around 90% in test [3] (read-out: inhibition of proliferation normalized to FBS-induced growth, combination, 1 uM ispinesib mesylate and 10 nM treprostinil sodium); around 75% in test [3] (read-out: inhibition of proliferation normalized to FBS-induced growth, combination, 1 uM ispinesib mesylate and 100 nM BQ788); around 80% in test [3] (read-out: inhibition of proliferation normalized to FBS-induced growth, combination, 1 uM ispinesib mesylate and 100 nM ambrisentan); around 99% in test [3] (read-out: inhibition of proliferation normalized to FBS-induced growth, combination, 1 uM ispinesib mesylate and 100 nM bosentan). Further, the inhibition at 1 µM in test [3] (read-out: inhibition of proliferation normalized to FBS-induced growth, combination, 1 uM ispinesib mesylate, 100 nM ambrisentan and 100 nM BQ788) is around 95%; in test [4], around 55%. The “potency compared with treprostinil sodium (in words)” value in test [2] (lung fibroblasts derived from IPF patients with secondary PAH) was “significantly more potent than treprostinil sodium”; in test [4] (normal HPASMCs), “slightly more potent than treprostinil sodium”. Further, the “effect on proliferation (in words)” value was “inhibited proliferation of fibroblasts in a dose dependent manner” in test [2], “inhibited proliferation of IPAH cells in a dose dependent manner” in test [3] and “inhibited proliferation of fibroblasts in a dose dependent manner” in test [4]. For the same compound, the “potency in IPAH HPASMCs and fibroblasts compared with normal HPASMCs (in words)” value in test [3] (comparison of Examples 9, 16 and 18) is “significantly more potent at inhibiting proliferation of IPAH HPASMCs and fibroblasts than normal HPASMCs”. In addition, the “effect of combined treatment versus single agents (in words)” value in test [3] (ispinesib mesylate (1 pM to 1 uM) with 10 nM treprostinil sodium) and in test [3] (ispinesib mesylate (1 pM to 1 uM) with 100 nM bosentan) was “enhanced the antiproliferative effects of either agent alone” in each case.
